From patent EP2292587A1, “PHARMACEUTICAL COMPOSITION FOR INHIBITING THE TRANSCRIPTION FACTOR INDUCIBLE BY HYPOXIA, MODULATORS OF PATHOLOGICAL PROCESSES OF ANGIOGENESIS, ONCOGENESIS, INFLAMMATION, APOPTOSIS, AND CELLULAR THERAPY” (Fundacion De La Comunidad Valenciana Centro De …, priority 2008, dated 2009)
Where two headings read alike, the source gives them in different places.

Experiments:
HIF = experiment: luciferase cell assay based on the HIF response elements (HRE), HeLa 9XHRE-LUC; set-up: species or system human; details: Homo sapiens, HeLa
Description: In order to identify direct inhibitors of the activity of HIF, a stable recombinant line was first constructed from the cervical tumor line, known in scientific literature as HeLa, which contained the deoxyribonucleic acid (DNA) sequences of the region located between positions -985 and -951 of the human vascular endothelial growth factor (hVEGF), repeated nine times (9X) and fused to the luciferase reporter gene (LUC). This plasmid, provided by Dr. Manuel Ortiz de Landazuri from the Hospital de La Princesa of Madrid, called 9XHRE-LUC, was prepared using a commercial kit (Endofree Maxi-Prep; Qiagen, Inc., Valencia, CA). The transfections were performed with FuGene6 (Roche, cat.1814443) according to the manufacturer's instructions, the µg DNA: µg FuGene ratio was 1:3. The transfected cell lines were generated by cotransfection with the vector pCMV-Hygrom which expressed a hygromycin resistance gene in mammalian cells, allowing the selection of the transfected clones. After 48 hours, the growth medium was substituted with fresh medium containing 100 µg/ml hygromycin (Sigma), the clones resistant to the antibiotic were collected and analyzed by means of RT-PCR to select the clone with the desired construct. Routinely, the HeLa 9XHRE-LUC cell line was maintained in exponential growth by means of performing subcultures in DMEM (Invitrogen-Life Technologies, Inc., Carlsbad, CA), supplemented with 10% inactivated fetal bovine serum (Whittacker Bioproducts), penicillin (50 IU/ml), streptomycin (50 µg/ml) (Invitrogen-Life Technologies, Inc., Carlsbad, CA). The cells were cultured at 37°C with a humidified atmosphere containing 5% CO2 and 300 nM Desferoxamine (DFX; Sigma St. Louis, MO).
The compounds of the Collection of the CIPF, coming from a selection of commercial collections of Sigma-Aldrich, were solubilized in DMSO at a final concentration of 5 mM and preserved at -80°C. The concentration of these compounds in the luciferase assay was 1 mcM finally in the well of the multi-well plate in which the reaction was carried out. The luciferase assays were performed in white 96-well plates (Valtecknova ref. 3917), using the kit Bright-Glo™ Luciferase Assay System (Promega, Inc., Madison, WI) following the instructions supplied by the manufacturer.
According to the methodology of the cell assay based on the HIF response elements (Example 1), the intermediate compounds of the synthesis and several synthesized analogs were tested to obtain the SAR of FM19G11.

[1] = tested on: AKT/mTOR/p70S6/Cyclin D1 signaling pathway; experiment: activation kinetics of mTOR signaling pathway, HCT116/p53+/+; assay type: cell-based, human; details: 0.5 µM
Experimental: Due to the crucial role of p53 as a tumor-suppressing agent, it was analyzed in HCT116 cells how FM19G11 affected the activation kinetics of proteins involved in favoring cell cycle progress, specifically the mTOR cell signaling pathway. An increase of cell progress can be due to replicative stress which generates DNA damage (Bartkova, J, Horejsi, Z, Koed, K, Kramer, A, Tort, F, Zieger, K et al., (2005) DNA damage response as a candidate anti-cancer barrier in early human tumorigenesis. Nature 434: 864-70; Bartkova, J, Rezaei, N, Liontos, M, Karakaidos, P, Kletsas, D, Issaeva, N et al., (2006) Oncogene-induced senescence is part of the tumorigenesis barrier imposed by DNA damage checkpoints. Nature 444: 633-7; Di Micco, R, Fumagalli, M, Cicalese, A, Piccinin, S, Gasparini, P, Luise, C et al., (2006) Oncogene-induced senescence is a DNA damage response triggered by DNA hyper-replication. Nature 444: 638-42), it was explored if the DDR triggered by FM19G11 was related to an increase of the cell cycle progress signal modulated by the mTOR signaling pathway. […]

`Cc1ccc(C(=O)COC(=O)c2cccc(NC(=O)c3ccc([N+](=O)[O-])cc3[N+](=O)[O-])c2)cc1` [FM19G11, 2-oxo-2-(p-tolyl)ethyl 3-((2,4-dinitro)benzamido)benzoate] showed an IC50 (HIF) of 0.08 µM, an IC50 (HIF; 6 h, read-out: IC50 from dose response curve (Figure 2 B)) of 0.08 µM and an IC50 (HIF; read-out: IC50 HRE (µM)) of 0.08 µM. For the same compound, the “activation of the AKT/mTOR/p70S6/Cyclin D1 signaling pathway (fold change)” value [1] was no less than 2.
